The assay has as its target T1, Mycobacterium tuberculosis protein tyrosine phosphatase B (MptpB) (Mycobacterium tuberculosis, UniProt I6WXK4).
T1 construct: The full-length PTPB gene was amplified from genomic DNA of the Mtb H37Rv strain; His6 (N); made in house
Kind of assay: biochemical. The class given is biochemical. The following applies: for IC50: MptpB, substrate DiFMUP, average of two independent experiments, sodium orthovanadate as positive control.

T1 sequence (I6WXK4 whole entry, looked up): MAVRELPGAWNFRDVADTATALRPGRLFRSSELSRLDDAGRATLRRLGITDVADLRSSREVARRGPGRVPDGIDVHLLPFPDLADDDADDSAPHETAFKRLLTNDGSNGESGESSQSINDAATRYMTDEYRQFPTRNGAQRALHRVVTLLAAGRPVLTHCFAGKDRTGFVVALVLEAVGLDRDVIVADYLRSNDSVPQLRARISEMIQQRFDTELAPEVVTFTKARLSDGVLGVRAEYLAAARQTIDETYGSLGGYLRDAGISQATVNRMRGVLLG

Usually IC50 stands for the concentration that inhibits the measured activity by half. Read a high IC50 as weaker potency. Molecule `COc1cc(O)c2c(c1O)C(c1cc(O)c3c(c1O)C(=O)C1=C(CC(O)C(C)(O)C1)C3=O)C1CC(C)(O)C(O)C(O)C1C2=O` (stereo not shown) [Compound 1, alterporriol S] showed an IC50 of 64.7 µM. `[Na+].[Na+].[Na+].[O]=[V]([O-])([O-])[O-]` [Control, sodium orthovanadate, reference compound] had an IC50 of 0.05 µM. Molecule `COc1cc(O)c2c(c1)C(=O)c1cc(C)c(O)c(-c3c(OC)cc4c(c3O)C(=O)C3=C(C4=O)[C@@H](O)[C@](C)(O)[C@H](O)[C@H]3O)c1C2=O` [Compound 2, (+)-aS-alterporriol C] registered an IC50 of 8.7 µM. For the same molecule, the “inhibitory activity against MptpB” value (result in words) was “strong inhibitory activity”.
